# Data published in patent US8541363B2, “Pyruvamide compounds as inhibitors of dust mite group 1 peptidase allergen and their use” (St George's Hosptial Medical School, priority 2010, dated 2013).
# Like-named read-outs stand apart in the source and are kept apart here.
# Molecular target: Der p 1 (Dermatophagoides pteronyssinus (European house dust mite), UniProt P08176)
# Test: Der p 1 enzyme activity assay (FRET fluorogenic substrate)
# Assay type: biochemical
# Procedure: The fluorogenic substrate used for measuring Der p 1 proteolytic activity was 2-aminobenzoylvalylalanylnorleucylseryl-(3-nitro)tyrosinyl aspartamide.
# Test compounds were dissolved in dry DMSO and maintained at 4° C. as stock solutions until being diluted for use in screening assays. Final concentration of DMSO in all enzymatic assays was 0.5% v/v.
# Reaction mixtures were assembled in a 96-well plate format (Perkin Elmer Optiplate 96F, Perkin Elmer LAS, Seer Green, Buckinghamshire, UK) using a Perkin Elmer MultiPROBE II Plus HTS EX robot with Gripper attachment. […] Dithiothreitol (DTT, 10 μL/well, 1 mM final concentration) was then added together with 10 μL of Der p 1 dissolved at 2.5 μg/mL in reaction buffer supplemented with 1 mM DTT. […] The plate was immediately transferred to a fluorescence plate reader (Perkin Elmer Fusion Alpha-FP or Perkin Elmer Envision) equipped with a temperature-controlled carrier set at 30° C. and the reaction followed by excitation/emission at 330/420 nm.
# Inhibitory activity was analysed from progress curves of reactions in the presence of a range of inhibitor concentrations.
# Initial velocity in each well was converted to fractional activity by Equation 1: Fractional activity=(Initial rate at inhibitor concentration[X]/Initial rate at inhibitor concentration zero)*100 Equation 1:
# Then, IC50 was determined by fitting the data of fractional activity and inhibitor concentration to a 4-parameter logistic curve, using Equation 2: V=Vmin+[Vmax−Vmin]/[1+(X/IC50)Hillslope] […] Biological Data—Der p 1 Enzyme Assay
# [1] = threshold stated in text, read-out: Der p 1 IC50
# Sequence of Der p 1 (P08176 99-320): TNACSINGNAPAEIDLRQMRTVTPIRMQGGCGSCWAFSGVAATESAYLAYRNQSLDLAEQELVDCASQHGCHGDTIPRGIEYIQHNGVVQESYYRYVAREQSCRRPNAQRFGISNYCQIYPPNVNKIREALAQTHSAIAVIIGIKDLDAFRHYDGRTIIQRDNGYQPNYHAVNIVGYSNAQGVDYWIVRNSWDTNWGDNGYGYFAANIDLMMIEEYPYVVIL
SMILES,IC50 [1] [nM],also measured
CC(C)[C@H](NC(=O)[C@H](C)NC(=O)[C@H](Cc1ccccc1)NC(=O)c1ccc(N2CCOCC2)nc1)C(=O)C(=O)NCc1ccccc1 [PVA-070],< 2000,
CCCCC(NC(=O)[C@H](C)NC(=O)[C@H](Cc1ccccc1)NC(=O)c1ccccc1)C(=O)C(=O)NCc1ccncc1 (some centres unmarked) [PVA-040],< 2000,
Cc1cc(C(=O)N[C@H](C(=O)N[C@@H](C)C(=O)N[C@H](C(=O)C(=O)NC2CC2)C(C)C)C(C)(C)C)[nH]n1 [PVA-141],< 200,
CCCC[C@H](NC(=O)[C@H](C)NC(=O)[C@@H](NC(=O)c1ccccc1)C(C)(C)C)C(=O)C(=O)NC1CCCCC1 [PVA-037],< 20,"IC50 (Table 1, read-out: Der p 1 IC50): 7.85 nM"
CC(C)[C@H](NC(=O)[C@H](C)NC(=O)[C@@H](NC(=O)c1ccc2ncsc2c1)C(C)(C)C)C(=O)C(=O)NC1CCCCC1 [PVA-053],< 200,
CC(C)[C@H](NC(=O)[C@H](C)NC(=O)[C@@H](NC(=O)c1ccc(N2CCN(C)CC2)cc1)C(C)(C)C)C(=O)C(=O)NCc1ccccc1 [PVA-176],< 200,
CC(C)[C@H](NC(=O)[C@H](C)NC(=O)[C@H](Cc1ccccc1)NC(=O)c1ccccc1)C(=O)C(=O)NCC(=O)N1CCOCC1 [PVA-068],,IC50 (Der p 1 IC50): < 20 nM
CC(C)[C@H](NC(=O)[C@H](C)NC(=O)[C@@H](NC(=O)N1CCN(C)CC1)C(C)(C)C)C(=O)C(=O)NCc1ccccc1 [PVA-122],< 200,
CC(C)[C@H](NC(=O)[C@H](C)NC(=O)C1CCCN1C(=O)c1ccccc1)C(=O)C(=O)NCC(=O)N1CCN(C)CC1 (some centres unmarked) [PVA-140],< 2000,
CC(C)[C@H](NC(=O)[C@H](C)NC(=O)[C@@H](Cc1ccccc1)NC(=O)c1cccc(Oc2ccccc2)c1)C(=O)C(=O)NC1CCCCC1 [PVA-021],< 2000,
CC(C)[C@H](NC(=O)[C@H](C)NC(=O)[C@@H](NC(=O)c1ccccc1)C12CC3CC(CC(C3)C1)C2)C(=O)C(=O)NCC(=O)N1CCN(C)CC1 [PVA-146],,IC50 (Der p 1 IC50): < 20 nM
CC(C)[C@H](NC(=O)[C@H](C)NC(=O)[C@@H](NC(=O)c1ccnc2ccccc12)C(C)(C)C)C(=O)C(=O)NCC(=O)N1CCc2ccccc2C1 [PVA-186],< 20,
CC(C)C[C@H](NC(=O)[C@H](C)NC(=O)[C@H](Cc1ccccc1)NC(=O)c1ccccc1)C(=O)C(=O)NC(C)C [PVA-004],< 200,
CC(C)[C@H](NC(=O)[C@H](C)NC(=O)[C@@H](NC(=O)c1ccccc1)C(C)(C)C)C(=O)C(=O)NCc1cncn1C [PVA-124],< 200,
CC(C)[C@H](NC(=O)[C@H](C)NC(=O)[C@@H](NC(=O)c1ccccc1)C(C)(C)C)C(=O)C(=O)NCc1ccc(CN2CCCCC2)cc1 [PVA-165],< 200,
CC(C)[C@H](NC(=O)[C@H](C)NC(=O)[C@H](Cc1ccccc1)NC(=O)c1ccccc1)C(=O)C(=O)NC1CCOCC1 [PVA-044],< 200,
CC(C)[C@H](NC(=O)[C@H](C)NC(=O)[C@@H](Cc1ccc(F)cc1)NC(=O)c1ccccc1)C(=O)C(=O)NCc1ccccc1 [PVA-045],< 200,
CC(C)[C@H](NC(=O)[C@H](C)NC(=O)[C@@H](NC(=O)c1cccc2ccccc12)C(C)(C)C)C(=O)C(=O)NC1CCCCC1 [PVA-052],< 200,
CC(C)[C@H](NC(=O)[C@H](C)NC(=O)[C@@H](NC(=O)c1ccc(N2CCOCC2)nc1)C(C)(C)C)C(=O)C(=O)NC1CCCCC1 [PVA-049],< 200,
COc1ccc(NC(=O)C(=O)[C@@H](NC(=O)[C@H](C)NC(=O)[C@H](Cc2ccccc2)NC(=O)c2ccccc2)C(C)C)cc1 [PVA-012],< 2000,
CC(C)[C@H](NC(=O)[C@H](C)NC(=O)[C@@H](NC(=O)c1cccc2ccccc12)C(C)(C)C)C(=O)C(=O)NCc1ccccc1 [PVA-056],< 200,
CC(C)[C@H](NC(=O)[C@H](C)NC(=O)[C@@H](NC(=O)c1ccccc1)C(C)(C)C)C(=O)C(=O)NCc1nccn1C [PVA-166],< 200,
CC(C)[C@H](NC(=O)[C@H](C)NC(=O)[C@@H](NC(=O)c1ccccc1)C(C)(C)C)C(=O)C(=O)NCC(=O)N1CCc2ccccc21 [PVA-112],< 20,
CC(C)[C@H](NC(=O)[C@H](C)NC(=O)[C@@H](NC(=O)c1ccccc1)C(C)(C)c1ccccc1)C(=O)C(=O)NC1CC1 [PVA-142],< 200,
CC(C)[C@H](NC(=O)[C@H](C)NC(=O)[C@@H](NC(=O)c1ccc(Cl)cc1)C(C)(C)C)C(=O)C(=O)NCc1ccccc1 [PVA-184],< 200,
CC(C)[C@H](NC(=O)[C@H](C)NC(=O)[C@@H](Cc1cccc2ccccc12)NC(=O)c1ccccc1)C(=O)C(=O)NCc1ccccc1 [PVA-034],< 2000,
CC(C)[C@H](NC(=O)[C@H](C)NC(=O)[C@H](Cc1ccccc1)NC(=O)c1ccccc1)C(=O)C(=O)NCC(=O)N1CCCCC1 [PVA-067],,IC50 (Der p 1 IC50): < 20 nM

# Now from value to compound, other results behind:
IC50 [1] [nM],SMILES,also measured
< 20,CC(C)[C@H](NC(=O)[C@H](C)NC(=O)[C@H](Cc1ccccc1)NC(=O)c1ccncc1)C(=O)C(=O)NCc1ccccc1 [PVA-099],
< 200,CC(C)[C@H](NC(=O)[C@H](C)NC(=O)[C@@H](NC(=O)c1ccc(OCc2nccn2C)cc1)C(C)(C)C)C(=O)C(=O)NC1CCCCC1 [PVA-077],
< 200,Cc1n[nH]c(C)c1C(=O)N[C@H](C(=O)N[C@@H](C)C(=O)N[C@H](C(=O)C(=O)NCc1ccccc1)C(C)C)C(C)(C)C [PVA-115],
< 200,CC(C)[C@H](NC(=O)[C@H](C)NC(=O)[C@@H](NC(=O)c1cnccn1)C(C)(C)C)C(=O)C(=O)NC1CCCCC1 [PVA-054],
< 20,CC(C)[C@H](NC(=O)[C@H](C)NC(=O)[C@@H](NC(=O)c1ccnc2ccccc12)C12CC3CC(CC(C3)C1)C2)C(=O)C(=O)NCC(=O)N1CCN(C)CC1 [PVA-147],
< 20,CC(C)[C@H](NC(=O)[C@H](C)NC(=O)[C@H](Cc1ccccc1)NC(=O)c1ccccc1)C(=O)C(=O)NC1CCCCC1 [PVA-003],
< 20,CC(C)[C@H](NC(=O)[C@H](C)NC(=O)[C@@H](NC(=O)c1ccccc1)C(C)(C)C)C(=O)C(=O)NCc1ccc(C(N)=O)cc1 [PVA-202],
< 20,CC(C)[C@H](NC(=O)[C@H](C)NC(=O)[C@@H](NC(=O)c1ccnc2ccccc12)C(C)(C)C)C(=O)C(N)=O [PVA-156],
< 20,CC(C)[C@H](NC(=O)[C@H](C)NC(=O)[C@@H](NC(=O)c1ccnc2ccccc12)C(C)(C)C)C(=O)C(=O)NC1CC1 [PVA-144],
< 20,CC(C)[C@H](NC(=O)[C@H](C)NC(=O)[C@@H](NC(=O)c1ccccc1)C(C)(C)C)C(=O)C(=O)N[C@H](C)c1ccccc1 [PVA-132],
< 20,CC(C)[C@H](NC(=O)[C@H](C)NC(=O)[C@@H](NC(=O)C1CCN(C)CC1)C(C)(C)C)C(=O)C(=O)NCc1ccccc1 [PVA-216],
< 20,CC(C)[C@H](NC(=O)[C@H](C)NC(=O)[C@H](Cc1ccccc1)N1Cc2ccccc2C1=O)C(=O)C(=O)NC1CCCCC1 [PVA-104],
< 20,CC(C)[C@H](NC(=O)[C@H](C)NC(=O)[C@@H](NC(=O)c1cncc2ccccc12)C(C)(C)C)C(=O)C(=O)NCc1ccccc1 [PVA-074],
< 20,COC(=O)c1cccc(CNC(=O)C(=O)[C@@H](NC(=O)[C@H](C)NC(=O)[C@@H](NC(=O)c2ccccc2)C(C)(C)C)C(C)C)c1 [PVA-199],
< 20,CC(C)[C@H](NC(=O)[C@H](C)NC(=O)[C@@H](NC(=O)c1ccccc1)C(C)(C)C)C(=O)C(=O)NC1CC1 [PVA-116],
< 20,CC(C)[C@H](NC(=O)[C@H](C)NC(=O)[C@@H](NC(=O)c1ccccc1S(C)(=O)=O)C(C)(C)C)C(=O)C(=O)NCc1ccccc1 [PVA-108],
